Measurements reported in the NIST ThermoML archive (doi:10.1021/je301167q).

Tests used:
[1] = 101 kPa, Liquid; for speed of sound: Sing-around technique in a fixed-path interferometer
[2] = xn = mol fraction of the nth substance listed; settings: 101 kPa, Liquid; for speed of sound: Sing-around technique in a fixed-path interferometer

CCCCN [1-butanamine]
[1]
Settings	mass density [kg/m3]	speed of sound [m/s]
298.15 K	733.33	1246.5
308.15 K	723.67	1201.3
318.15 K	714	1156.2

CCCCN [1-butanamine] + CCCCCCCC[n+]1ccn(C)c1.F[B-](F)(F)F
[2]
Settings	mass density, 298.15 K [kg/m3]	mass density, 308.15 K [kg/m3]	mass density, 318.15 K [kg/m3]	speed of sound, 298.15 K [m/s]	speed of sound, 308.15 K [m/s]	speed of sound, 318.15 K [m/s]
x2 = 0	733.33	723.67	714	1246.5	1201.3	1156.2
x2 = 0.0963	817.1	807.93	800.03	1276.5	1235	1193.1
x2 = 0.1917	880.04	871.4	863.91	1309	1270.6	1232
x2 = 0.2948	932.2	924.07	916.37	1344.1	1309	1274
x2 = 0.3866	968.66	960.74	953.13	1371.6	1338.8	1306.4
x2 = 0.49	1001.63	993.95	986.41	1398.9	1368.2	1337.9
x2 = 0.5895	1027.36	1019.96	1012.6	1421.3	1391.9	1363.3
x2 = 0.7124	1053.43	1046.28	1039.31	1442.7	1414.8	1387.4
x2 = 0.7925	1067.91	1060.88	1053.97	1454.2	1427.1	1400
x2 = 0.8843	1082.31	1075.48	1068.67	1465.8	1438.8	1412.3

CCCCN [1-butanamine] + CCCCCCn1cc[n+](C)c1.F[B-](F)(F)F
[2]
Settings	mass density, 298.15 K [kg/m3]	mass density, 308.15 K [kg/m3]	mass density, 318.15 K [kg/m3]	speed of sound, 298.15 K [m/s]	speed of sound, 308.15 K [m/s]	speed of sound, 318.15 K [m/s]
x2 = 0	733.33	723.67	714	1246.5	1201.3	1156.2
x2 = 0.0994	820.09	810.83	803.47	1272.3	1231.1	1188.8
x2 = 0.2012	890.48	881.55	874.79	1305.8	1267.4	1229
x2 = 0.302	946.28	937.89	930.48	1341	1305.5	1270.1
x2 = 0.4065	993.19	985.04	977.3	1376.3	1343.8	1312
x2 = 0.4959	1026.43	1018.45	1010.64	1404.6	1374.3	1344.3
x2 = 0.5886	1055.62	1047.87	1040.15	1428.9	1401.1	1373.6
x2 = 0.7069	1086.83	1079.26	1071.7	1456.2	1429.9	1403.8
x2 = 0.8126	1110.28	1102.83	1095.43	1474.1	1450.2	1423.8
x2 = 0.8796	1123.46	1116.13	1108.89	1483.2	1459.8	1433.9

CCCCCCn1cc[n+](C)c1.F[B-](F)(F)F [1-hexyl-3-methylimidazolium tetrafluoroborate]
[1]
Settings	mass density [kg/m3]	speed of sound [m/s]
298.15 K	1145.11	1496.7
308.15 K	1137.71	1472
318.15 K	1130.49	1447.7

CCCCCCn1cc[n+](C)c1.F[B-](F)(F)F [1-hexyl-3-methylimidazolium tetrafluoroborate] + CCCCCCCCN
[2], x1 = 1
Settings	mass density [kg/m3]	speed of sound [m/s]
298.15 K	1145.11	1496.7
308.15 K	1137.71	1472
318.15 K	1130.49	1447.7

CCCCCCn1cc[n+](C)c1.F[B-](F)(F)F [1-hexyl-3-methylimidazolium tetrafluoroborate] + CCCCN
[2], x1 = 1
Settings	mass density [kg/m3]	speed of sound [m/s]
298.15 K	1145.11	1496.7
308.15 K	1137.71	1472
318.15 K	1130.49	1447.7

CCCCCCCC[n+]1ccn(C)c1.F[B-](F)(F)F [1-methyl-3-octylimidazolium tetrafluoroborate]
[1]
Settings	mass density [kg/m3]	speed of sound [m/s]
298.15 K	1097.61	1481.1
308.15 K	1090.9	1453.9
318.15 K	1084.17	1428.2

CCCCCCCC[n+]1ccn(C)c1.F[B-](F)(F)F [1-methyl-3-octylimidazolium tetrafluoroborate] + CCCCCCCCN
[2], x1 = 1
Settings	mass density [kg/m3]	speed of sound [m/s]
298.15 K	1097.61	1481.1
308.15 K	1090.9	1453.9
318.15 K	1084.17	1428.2

CCCCCCCC[n+]1ccn(C)c1.F[B-](F)(F)F [1-methyl-3-octylimidazolium tetrafluoroborate] + CCCCN
[2], x1 = 1
Settings	mass density [kg/m3]	speed of sound [m/s]
298.15 K	1097.61	1481.1
308.15 K	1090.9	1453.9
318.15 K	1084.17	1428.2

CCCCCCCCN [1-octanamine]
[1]
Settings	mass density [kg/m3]	speed of sound [m/s]
298.15 K	777.45	1343.2
308.15 K	769.46	1303.1
318.15 K	761.47	1263.5

CCCCCCCCN [1-octanamine] + CCCCCCCC[n+]1ccn(C)c1.F[B-](F)(F)F
[2]
Settings	mass density, 298.15 K [kg/m3]	mass density, 308.15 K [kg/m3]	mass density, 318.15 K [kg/m3]	speed of sound, 298.15 K [m/s]	speed of sound, 308.15 K [m/s]	speed of sound, 318.15 K [m/s]
x2 = 0	777.45	769.46	761.47	1343.2	1303.1	1263.5
x2 = 0.1563	851.54	843.71	835.78	1353.1	1314.6	1276.9
x2 = 0.3025	910.65	902.92	895.08	1370.2	1334.4	1299
x2 = 0.4175	951.05	943.4	935.73	1387.6	1353.8	1320.5
x2 = 0.5225	983.58	976.2	968.62	1404.3	1372.4	1340.9
x2 = 0.6252	1011.86	1004.63	997.3	1420.9	1390.6	1360.7
x2 = 0.7202	1035.54	1028.44	1021.3	1436.5	1407.1	1378.4
x2 = 0.794	1052.58	1045.53	1038.51	1449	1419.9	1392.2
x2 = 0.7994	1053.88	1046.83	1039.75	1449.2	1421.1	1393.2
x2 = 0.8691	1069.21	1062.23	1055.21	1461.3	1432.7	1405.8
x2 = 0.9259	1081.47	1074.59	1067.76	1470.5	1442.2	1416.1

CCCCCCCCN [1-octanamine] + CCCCCCn1cc[n+](C)c1.F[B-](F)(F)F
[2]
Settings	mass density, 298.15 K [kg/m3]	mass density, 308.15 K [kg/m3]	mass density, 318.15 K [kg/m3]	speed of sound, 298.15 K [m/s]	speed of sound, 308.15 K [m/s]	speed of sound, 318.15 K [m/s]
x2 = 0	777.45	769.46	761.47	1343.2	1303.1	1263.5
x2 = 0.2986	914.74	906.98	899.32	1365.4	1331.6	1306.8
x2 = 0.398	954.27	946.51	938.79	1379.9	1345.6	1317.5
x2 = 0.4981	991.03	983.38	975.59	1396.2	1364.9	1333.8
x2 = 0.5999	1025.72	1017.96	1010.27	1416.6	1386.2	1356.4
x2 = 0.6994	1057.35	1049.51	1041.89	1437.5	1409.6	1381.5
x2 = 0.7998	1087.45	1079.76	1072.25	1460.3	1433.5	1408.2
x2 = 0.8945	1114.95	1107.34	1099.87	1479.6	1455.6	1431.7
